Assay results published in patent EP2361243B9 (Virobay, Inc., priority 2008, dated 2010).

Experiments:
Type in all cases: biochemical
[1] = biological target: T1, Human cathepsin F (Homo sapiens, UniProt Q9UBX1); assay: Cathepsin F Assay; details: apparent inhibition constant; substrate Z-Phe-Arg-AMC, pH 6.5, 30 min incubation at room temperature; read-out: CATF (Ki)
T1 sequence (Q9UBX1 271-484): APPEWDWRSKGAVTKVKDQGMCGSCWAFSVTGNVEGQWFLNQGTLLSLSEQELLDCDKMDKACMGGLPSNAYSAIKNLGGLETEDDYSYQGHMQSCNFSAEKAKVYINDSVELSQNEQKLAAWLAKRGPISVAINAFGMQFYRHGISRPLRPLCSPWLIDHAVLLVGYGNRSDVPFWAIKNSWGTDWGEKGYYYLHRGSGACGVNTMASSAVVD
Procedure: (§1) Solutions of test compounds in varying concentrations were prepared in 10 µL of dimethyl sulfoxide (DMSO) and then diluted into assay buffer (40 µL, comprising: MES, 50 mM (pH 6.5); EDTA, 2.5 mM; and NaCl, 100 mM); DTT, 2.5 mM; and BSA, 0.01 %. Human cathepsin F (0.1 pMoles in 25 µL of assay buffer) was added to the dilutions. The assay solutions were mixed for 5-10 seconds on a shaker plate, covered and incubated for 30 min at room temperature. Z-Phe-Arg-AMC (2 nMoles in 25 µL of assay buffer containing 10% DMSO) was added to the assay solutions and hydrolysis was followed spectrophotometrically (at λ 460 nm) for 5 min. Apparent inhibition constants (Ki) were calculated from the enzyme progress curves using standard mathematical models.

[2] = biological target: Human cathepsin L (Homo sapiens, UniProt P07711); assay: Cathepsin L Assay; details: apparent inhibition constant; substrate Z-Phe-Arg-AMC, pH 5.5, 30 min incubation at room temperature; read-out: CATL (Ki)
Procedure: (§2) Solutions of test compounds in varying concentrations were prepared in 10 µL of dimethyl sulfoxide (DMSO) and then diluted into assay buffer (40 µL, comprising: MES, 50 mM (pH 5.5); EDTA, 2.5 mM; and DTT, 2.5 mM). Human cathepsin L (0.05 pMoles in 25 µL of assay buffer) was added to the dilutions. The assay solutions were mixed for 5-10 seconds on a shaker plate, covered and incubated for 30 min at room temperature. Z-Phe-Arg-AMC (1 nMoles in 25 µL of assay buffer) was added to the assay solutions and hydrolysis was followed spectrophotometrically at (λ 460 nm) for 5 min. Apparent inhibition constants (Ki) were calculated from the enzyme progress curves using standard mathematical models.

[3] = biological target: Human cathepsin B (Homo sapiens, UniProt P07858); assay: Cathepsin B Assay; details: apparent inhibition constant; substrate Z-FR-AMC, pH 6, 30 min incubation at room temperature; read-out: CATB (Ki)
Procedure: as §2, with “N,N-bis(2-hydroxyethyl)-2-aminoethanesulfonic acid (BES),” for “MES,”, “6); polyoxyethylenesorbitan monolaurate, 0.05%;” for “5.5); EDTA, 2.5 mM;”, “dithiothreitol (DTT),” for “DTT,”, “B (0.025” for “L (0.05”, “Z-FR-AMC (20” for “Z-Phe-Arg-AMC (1”

[4] = biological target: CATV (Homo sapiens, UniProt O60911); assay: Cathepsin V inhibition (CATV Ki, no method described)
[5] = biological target: Human cathepsin S (Homo sapiens, UniProt P25774); assay: Cathepsin S Assay; details: apparent inhibition constant; substrate Z-Val-Val-Arg-AMC, pH 6.5, 30 min incubation at room temperature; read-out: CATS (Ki)
Procedure: as §1, with “β-mercaptoethanol,” for “DTT,”, “[…].” for “0.01 %.”, “S (0.05” for “F (0.1”, “Z-Val-Val-Arg-AMC (4” for “Z-Phe-Arg-AMC (2”, “λ,” for “λ”

Chain of CATV (O60911 114-334): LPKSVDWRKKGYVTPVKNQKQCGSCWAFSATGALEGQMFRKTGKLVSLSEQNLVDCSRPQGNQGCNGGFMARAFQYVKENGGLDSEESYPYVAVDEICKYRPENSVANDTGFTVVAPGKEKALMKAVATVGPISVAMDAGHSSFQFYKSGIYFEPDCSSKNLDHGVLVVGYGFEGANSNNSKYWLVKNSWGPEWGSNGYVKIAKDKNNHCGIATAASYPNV
Chain of Human cathepsin S (P25774 115-331): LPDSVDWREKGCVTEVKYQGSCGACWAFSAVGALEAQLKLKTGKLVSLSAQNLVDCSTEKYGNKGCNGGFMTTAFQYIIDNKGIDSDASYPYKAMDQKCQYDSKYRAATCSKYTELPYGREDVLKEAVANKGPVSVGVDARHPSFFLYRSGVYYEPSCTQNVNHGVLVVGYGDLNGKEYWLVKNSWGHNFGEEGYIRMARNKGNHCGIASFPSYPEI
Chain of Human cathepsin L (P07711 114-333): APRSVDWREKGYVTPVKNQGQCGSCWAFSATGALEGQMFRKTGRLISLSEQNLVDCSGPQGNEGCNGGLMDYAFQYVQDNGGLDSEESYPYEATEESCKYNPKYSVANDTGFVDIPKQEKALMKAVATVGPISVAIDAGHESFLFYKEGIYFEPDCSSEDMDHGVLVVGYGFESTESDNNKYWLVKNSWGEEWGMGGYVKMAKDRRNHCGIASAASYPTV

Compound	Ki [1] [nM]	Ki [2] [nM]	Ki [3] [nM]	Ki [4] [nM]	Ki [5] [nM]
N#CC1(NC(=O)[C@H](CS(=O)(=O)Cc2cccnc2)NCC(F)(F)Oc2ccc(F)cc2)CC1 [A, (R)-N-(1-cyanocyclopropyl)-2-(2,2-difluoro-2-(4-fluorophenoxy)ethylamino)-3-(pyridin-3-ylmethylsulfonyl)propanamide]	> 1000	> 1000	> 1000	< 1000	< 100
CC[C@H](NC(=O)[C@H](CS(=O)(=O)Cc1cccnc1)NCC(F)(F)Oc1ccc(F)cc1)C(=O)C(=O)NC1CC1 [B, (S)-N-cyclopropyl-3-((R)-2-(2,2-difluoro-2-(4-fluorophenoxy)ethylamino)-3-(pyridin-3-ylmethylsulfonyl)propanamido)-2-oxopentanamide]	< 1000	< 100	< 100	< 100	< 100
CC#C[C@H](N[C@@H](CSCC1CC1)C(=O)NC1(C#N)CC1)C(F)(F)Oc1ccc(SC)cc1 [Compound C, (R)-N-(1-cyanocyclopropyl)-3-(cyclopropylmethylthio)-2-((S)-1,1-difluoro-1-(4-(methylthio)phenoxy)pent-3-yn-2-ylamino)propanamide]	> 1000	> 1000	< 100	> 1000	< 1000
CC#C[C@H](N[C@@H](CS(=O)(=O)CC1CC1)C(=O)NC1(C#N)CC1)C(F)(F)Oc1ccc(S(C)(=O)=O)cc1 [D, (R)-N-(1-cyanocyclopropyl)-3-(cyclopropylmethylsulfonyl)-2-((S)-1,1-difluoro-1-(4-(methylsulfonyl)phenoxy)pent-3-yn-2-ylamino)propanamide]	> 1000	> 1000	> 1000	< 1000	< 100
CC#C[C@H](N[C@@H](CSCc1ccccn1)C(=O)NC1(C#N)CC1)C(F)(F)Oc1ccc(SC)cc1 [E, (R)-N-(1-cyanocyclopropyl)-2-((S)-1,1-difluoro-1-(4-(methylthio)phenoxy)pent-3-yn-2-ylamino)-3-(pyridin-2-ylmethylthio)propanamide]	> 1000	> 1000	> 1000	< 1000	< 100
CC#C[C@H](N[C@@H](CS(=O)(=O)Cc1ccccn1)C(=O)NC1(C#N)CC1)C(F)(F)Oc1ccc(S(C)(=O)=O)cc1 [F, (R)-N-(1-cyanocyclopropyl)-2-((S)-1,1-difluoro-1-(4-(methylsulfonyl)phenoxy)pent-3-yn-2-ylamino)-3-(pyridin-2-ylmethylsulfonyl)propanamide]	> 1000	> 1000	> 1000	< 100	< 100
CC#C[C@H](N[C@@H](CSCc1cccnc1)C(=O)NC1(C#N)CC1)C(F)(F)Oc1ccc(SC)cc1 [G]	> 1000	> 1000	> 1000	< 1000	< 100
CC#C[C@H](N[C@@H](CS(=O)(=O)Cc1cccnc1)C(=O)NC1(C#N)CC1)C(F)(F)Oc1ccc(S(C)(=O)=O)cc1 [H, (R)-N-(1-cyanocyclopropyl)-3-((S)-1,1 1-difluoro-1-(4-(methylsulfonyl)phenoxy)pent-3-yn-2-ylamino)-2-((pyridin-3-ylmethylsulfonyl)methyl)propanamide]	> 1000	> 1000	> 1000	< 100	< 100
CC#C[C@H](N[C@@H](CS(=O)(=O)Cc1ccc[n+]([O-])c1)C(=O)NC1(C#N)CC1)C(F)(F)Oc1ccc(S(C)(=O)=O)cc1 [I]	> 1000	> 1000	> 1000	< 100	< 100
CC[C@H](NC(=O)[C@H](CS(=O)(=O)CC1CC1)NCC(F)(F)Oc1ccc(F)cc1)C(=O)C(=O)NC1CC1 [J, (S)-N-cyclopropyl-3-((R)-3-(cyclopropylmethylsulfonyl)-2-(2,2-difluoro-2-(4-fluorophenoxy)ethylamino)propanamido)-2-oxopentanamide]	< 1000	< 1000	< 100	< 100	< 100
CC[C@H](NC(=O)[C@H](CC(F)(F)CC1CC1)NCC(F)(F)Oc1ccc(F)cc1)C(=O)C(=O)NC1CC1 [K, (S)-5-cyclopropyl-N-((S)-1-(cyclopropylamino)-1,2-dioxopentan-3-yl)-2-(2,2-difluoro-2-(4-fluorophenoxy)ethylamino)-4,4-difluoropentanamide]		< 100	< 1000	< 100	< 100
N#CC1(NC(=O)[C@H](CC(F)(F)CC2CC2)NCC(F)(F)Oc2ccc(F)cc2)CC1 [L, (S)-N-(1-cyanocyclopropyl)-5-cyclopropyl-2-(2,2-difluoro-2-(4-fluorophenoxy)ethylamino)-4,4-difluoropentanamide]		> 1000	> 1000	> 1000	< 1000
